Assay results reported in patent publication US20020094522A1, “Means and methods for monitoring non-nucleoside reverse transcriptase inhibitor antiretroviral therapy and guiding therapeutic decisions in the treatment of HIV/AIDS” (priority 2000, published 2002).

How the values were obtained:
[1] = system: RTV-300 (patient sample 97-300); assay: Phenotypic susceptibility assay, RTV-300; format: cell-based, HIV-1; details: RTV-300, patient-derived pool
Procedure: (§1) Transfections were performed using a calcium-phosphate precipitation procedure. […] Cell lysates were assayed for luciferase activity (FIG. 3).
(§2) The drug inhibition curves are shown in (FIG. 3).
A resistance test vector was constructed as described in Example 1 from a patient sample designated 97-300. This patient had been previously treated with d4T and 3TC (NRTIs), indinavir (a PRI) and efavirenz (an NNRTI). Isolation of viral RNA and RT/PCR was used to generate a patient derived segment that comprised viral sequences coding for all of PR and aa 1-313 of RT. The PDS was inserted into an indicator gene viral vector to generate a resistance test vector designated RTV-300. RTV-300 was then tested in a phenotypic assay to determine accurately and quantitatively the level of susceptibility to a panel of anti-retroviral drugs. […] An IC50 was determined for the resistance test vector pool for each drug tested. The pattern of susceptibility to all of the drug tested was examined and compared to known patterns of susceptibility.

[2] = system: RTV-1057 (patient sample 98-1057); assay: Phenotypic susceptibility assay, RTV-1057; format: cell-based, HIV-1; details: RTV-1057, patient-derived pool
Procedure: as §1, §2
A resistance test vector was constructed as described in Example 1 from a patient sample designated 98-1057. This patient had been previously treated with ddI, d4T, AZT, and 3TC (NRTIs), saquinavir and indinavir (PRIs) and delavirdine (an NNRTI). Isolation of viral RNA and RT/PCR was used to generate a patient derived segment that comprised viral sequences coding for all of PR and aa 1-313 RT. The PDS was inserted into an indicator gene viral vector to generate resistance test vector designated RTV-1057. RTV-1057 was then tested in a phenotypic assay to determine accurately and quantitatively the level of susceptibility to a panel of anti-retroviral drugs. […] An IC50 was determined for the resistance test vector pool for each drug tested. The pattern of susceptibility to all of the drugs tested was examined and compared to known patterns of susceptibility.

[3] = system: RTV-757 (patient sample 98-757); assay: Phenotypic susceptibility assay, RTV-757; format: cell-based, HIV-1; details: RTV-757, same patient after additional 8 weeks of treatment
Procedure: as §1, §2
A resistance test vector was constructed as described in Example 1 from a patient sample designated 98-1033. […] Isolation of viral RNA and RT/PCR was used to generate a patient derived segment that comprised viral sequences coding for all of PR and aa 1-313 of RT. The PDS was inserted into an indicator gene viral vector to generate resistance test vectors designated RTV-1033 and RTV-757. RTV-1033 and RTV-757 were then tested in a phenotypic assay to determine accurately and quantitatively the level of susceptibility to a panel of anti-retroviral drugs. […] An IC50 was determined for the resistance test vector pool for each drug tested. The pattern of susceptibility to all of the drugs tested was examined and compared to known patterns of susceptibility.

[4] = system: RTV-1058 Clone 10 (L100I, K103N and Y188L); assay: Phenotypic susceptibility assay, RTV-1058 clone 10; format: cell-based, HIV-1
Procedure: (§3) The resistance test vectors containing a functional luciferase gene cassette were constructed and host cells were transfected with the resistance test vector DNA. The resistant test vectors contained patient-derived reverse transcriptase and protease sequences that were either susceptible or resistant to the antiretroviral agents, such as nucleoside reverse transcriptase inhibitors, non-nucleoside reverse transcriptase inhibitors and protease inhibitors. […] The IC50 values were determined by plotting percent drug inhibition vs. log10 drug concentration.
(§4) Host cells were seeded in 10-cm-diameter dishes and were transfected several days after plating with resistance test vector plasmid DNA and the envelope expression vector. […] HIV capsid protein (p24) levels in the harvested cell culture media were determined by an EIA method as described by the manufacturer (SIAC; Frederick, Md.). […] The inhibitory effect of the drug was determined using the following equation: […]
A resistance test vector was constructed as described in Example 1 from a patient sample designated 98-1058. […] An IC50 was determined for the resistance test vector pool for each drug tested.

[5] = system: patient 780 virus (RT K103N, P225H); assay: Phenotypic susceptibility assay, patient 780; format: cell-based, HIV; details: patient 780, FIG. 8B
From the text: as §3, with “inhibitors. The resistance test vector viral particles produced by transfecting the resistance test vector DNA into host cells, either in the presence or absence of protease inhibitors, were used to infect target host cells grown either in the absence of NRTI or NNRTI or in the presence of increasing concentrations of the drug.” for “inhibitors.”
as §4

[6] = system: RTVs containing P236L plus K103N, Y181C or both (K103N+Y181C); assay: Phenotypic susceptibility assay, P236L added to K103N, Y181C or both; format: cell-based, HIV-1; details: P236L with K103N
Procedure: as §1, §2
Resistance test vectors were constructed containing the P236L mutation alone and in combination with other known drug resistance mutations (K103N, Y181C) that are known to modulate the susceptibility of HIV-1 to NNRTIs. […] The P236L mutation was also introduced into a RTV containing mutations at K103N, Y181C or both (K103N+Y181C).

For `CC(C)Nc1cccnc1N1CCN(C(=O)c2cc3cc(NS(C)(=O)=O)ccc3[nH]2)CC1` [delavirdine], the “fold decrease in susceptibility (IC50)” value [1] was 25 fold, the “fold decrease in susceptibility (IC50)” value [2] was 35 fold and the “fold decrease in susceptibility (IC50)” value [3] was 10 fold. For the same molecule, the “fold loss of susceptibility (IC50)” value [4] was “greater than 250 fold”, the “susceptibility/resistance profile” value [5] was “reduced susceptibility” and the “change in susceptibility compared to the corresponding RTV lacking P236L” value [6] was “less susceptible (more resistant) to delavirdine if the P236L mutation was present”.
With `Cc1ccnc2c1NC(=O)c1cccnc1N2C1CC1` [nevirapine] the “fold decrease in susceptibility (IC50)” value [1] was “greater than 800 fold”, the “fold decrease in susceptibility (IC50)” value [2] was 610 fold and the “fold decrease in susceptibility (IC50)” value [3] was “greater than 800 fold”. The “fold loss of susceptibility (IC50)” value [4] was “greater than 800 fold”, the “susceptibility/resistance profile” value [5] was “reduced susceptibility” and the “change in susceptibility compared to the corresponding RTV lacking P236L” value [6] was “did not significantly alter nevirapine susceptibility”.
